Source: US20040006070A1, “Intraspinal continuous infusion of midazolam hydrochloride for the treatment of pain” (priority 2002, published 2004)
Structures can show the parent of a compound that is named as a salt.

Test: Bloodwork: complete blood count, electrolytes, extended blood chemistry
Assay type: in vivo, sheep
Experimental: Indirect blood pressure, pulse recording, pain testing (mechanical stimulus device, cold and warm water baths see description in procedure) and weight were taken on days 1, 3, 7, 15, 22, 29, 36, and 43. Venous blood samples (15 ml drawn from the jugular vein with Vacutainer brand blood collection tubes) for complete blood count, electrolytes, and extended blood chemistry were drawn on days 1, 15, and 43 (mild procedure only light hand restraint necessary).

[1] = sheep Elmer Fudd #437, 5 mg/day, Day 43
[2] = sheep Leghorn II #815, 15 mg/day, Baseline
[3] = sheep Leghorn II #815, 15 mg/day, Day 1
[4] = sheep Leghorn II #815, 15 mg/day, Day 15
[5] = sheep Leghorn II #815, 15 mg/day, Day 43
[6] = sheep Petunia #439, 15 mg/day, Baseline
[7] = sheep Petunia #439, 15 mg/day, Day 1
[8] = sheep Petunia #439, 15 mg/day, Day 15
[9] = sheep Petunia #439, 15 mg/day, Day 43
[10] = sheep Porky #402, 5 mg/day, Baseline
[11] = sheep Porky #402, 5 mg/day, Day 1
[12] = sheep Porky #402, 5 mg/day, Day 15
[13] = sheep Porky #402, 5 mg/day, Day 43

Cc1ncc2n1-c1ccc(Cl)cc1C(c1ccccc1F)=NC2 [Midazolam, midazolam hydrochloride]
CPK [1]: 64 U/L
Cholesterol [1]: 90 mg/dL
Creatinine [1]: 1.3 mg/dL
Differential Count: Atyp lym [1]: 0%
Differential Count: Bands [1]: 0%
Differential Count: Eosin [1]: 2%
Differential Count: Lymph [1]: 38%
Differential Count: Mono [1]: 1%
Differential Count: Seg [1]: 59%
Gamma GT [1]: 48 U/L
Glucose [1]: 83 mg/dL
Hct [1]: 34.6%
Hgb [1]: 11.8 g/dL
K+ [1]: 4.3 mEq/l
MCH [1]: 10.8 pg
MCHC [1]: 34.2 G/dl
MCV [1]: 31.7 fL
Na+ [1]: 147 mEq/l
Phos [1]: 6.2 mg/dL
Platlet Count [1]: 540000 µL⁻¹
RBC [1]: 1.09e+07 µL⁻¹
Total Bili [1]: 0.1 mg/dL
Total Prot [1]: 6.6 g/dL
WBC [1]: 4650 µL⁻¹
Differential Count: Atyp lym [2]: 0%
Differential Count: Baso [2]: 0%
Differential Count: Eosin [2]: 4%
Differential Count: Lymph [2]: 79%
Differential Count: Mono [2]: 3%
Differential Count: Seg [2]: 14%
Hct [2]: 36.9%
Hgb [2]: 12.5 g/dL
MCH [2]: 10.7 pg
MCHC [2]: 33.9 G/dl
MCV [2]: 31.5 fL
Platlet Count [2]: 516000 µL⁻¹
RBC [2]: 1.17e+07 µL⁻¹
WBC [2]: 6730 µL⁻¹
ALT [3]: 14 U/L
AST [3]: 117 U/L
Albumin [3]: 3.5 g/dL
Alk Phos [3]: 117 U/L
BUN [3]: 19 mg/dL
CPK [3]: 94 U/L
Cholesterol [3]: 68 mg/dL
Creatinine [3]: 0.9 mg/dL
Differential Count: Atyp lym [3]: 0%
Differential Count: Baso [3]: 0%
Differential Count: Eosin [3]: 2%
Differential Count: Lymph [3]: 58%
Differential Count: Mono [3]: 2%
Differential Count: Seg [3]: 28%
Gamma GT [3]: 80 U/L
Glucose [3]: 80 mg/dL
Hct [3]: 34.7%
Hgb [3]: 11.8 g/dL
K+ [3]: 5.0 mEq/l
MCH [3]: 10.6 pg
MCHC [3]: 34.0 G/dl
MCV [3]: 31.1 fL
Na+ [3]: 146 mEq/l
Phos [3]: 8.3 mg/dL
Platlet Count [3]: 828000 µL⁻¹
RBC [3]: 1.11e+07 µL⁻¹
Total Bili [3]: 0 mg/dL
Total Prot [3]: 6.3 g/dL
WBC [3]: 6070 µL⁻¹
Differential Count: Atyp lym [4]: 0%
Differential Count: Baso [4]: 0%
Differential Count: Eosin [4]: 16%
Differential Count: Lymph [4]: 59%
Differential Count: Mono [4]: 1%
Differential Count: Seg [4]: 24%
Hct [4]: 38.0%
Hgb [4]: 12.4 g/dL
MCH [4]: 10.4 pg
MCHC [4]: 32.7 G/dl
MCV [4]: 31.8 fL
Platlet Count [4]: 861000 µL⁻¹
RBC [4]: 1.2e+07 µL⁻¹
WBC [4]: 6640 µL⁻¹
Differential Count: Atyp lym [5]: 0%
Differential Count: Baso [5]: 1%
Differential Count: Eosin [5]: 2%
Differential Count: Lymph [5]: 77%
Differential Count: Mono [5]: 2%
Differential Count: Seg [5]: 18%
Hct [5]: 36.4%
Hgb [5]: 12.3 g/dL
MCH [5]: 10.5 pg
MCHC [5]: 33.7 G/dl
MCV [5]: 31.2 fL
Platlet Count [5]: 345000 µL⁻¹
RBC [5]: 1.17e+07 µL⁻¹
WBC [5]: 6110 µL⁻¹
Differential Count: Atyp lym [6]: 0%
Differential Count: Bands [6]: 0%
Differential Count: Eosin [6]: 130%
Differential Count: Lymph [6]: 53%
Differential Count: Mono [6]: 7%
Differential Count: Seg [6]: 27%
Hct [6]: 41.1%
Hgb [6]: 14.0 g/dL
MCH [6]: 11.5 pg
MCHC [6]: 34.2 G/dl
MCV [6]: 33.6 fL
Platlet Count [6]: 489000 µL⁻¹
RBC [6]: 1.22e+07 µL⁻¹
WBC [6]: 3120 µL⁻¹
ALT [7]: 0 U/L
AST [7]: 102 U/L
Albumin [7]: 3.6 g/dL
Alk Phos [7]: 43 U/L
BUN [7]: 10 mg/dL
CPK [7]: 84 U/L
Cholesterol [7]: 60 mg/dL
Creatinine [7]: 1.1 mg/dL
Differential Count: Atyp lym [7]: 2%
Differential Count: Bands [7]: 1%
Differential Count: Eosin [7]: 1%
Differential Count: Lymph [7]: 50%
Differential Count: Mono [7]: 6%
Differential Count: Seg [7]: 40%
Gamma GT [7]: 84 U/L
Glucose [7]: 71 mg/dL
Hct [7]: 42.4%
Hgb [7]: 14.4 g/dL
K+ [7]: 5.4 mEq/l
MCH [7]: 11.3 pg
MCHC [7]: 33.9 G/dl
MCV [7]: 33.3 fL
Na+ [7]: 152 mEq/l
Phos [7]: 7.9 mg/dL
RBC [7]: 1.27e+07 µL⁻¹
Total Bili [7]: 0 mg/dL
Total Prot [7]: 6.6 g/dL
WBC [7]: 2920 µL⁻¹
Platlet Count (sheep Petunia #439, 15 mg/day, Day 1, platelet clumps observed): 715• ×10^3/μl
ALT [8]: 1 U/L
AST [8]: 94 U/L
Albumin [8]: 4.0 g/dL
Alk Phos [8]: 29 U/L
BUN [8]: 14 mg/dL
CPK [8]: 105 U/L
Cholesterol [8]: 61 mg/dL
Creatinine [8]: 1.2 mg/dL
Differential Count: Atyp lym [8]: 1%
Differential Count: Bands [8]: 0%
Differential Count: Eosin [8]: 2%
Differential Count: Lymph [8]: 46%
Differential Count: Mono [8]: 3%
Differential Count: Seg [8]: 48%
Gamma GT [8]: 74 U/L
Glucose [8]: 93 mg/dL
Hct [8]: 30.8%
Hgb [8]: 10.1 g/dL
K+ [8]: 4.3 mEq/l
MCH [8]: 11.2 pg
MCHC [8]: 32.7 G/dl
MCV [8]: 34.2 fL
Na+ [8]: 150 mEq/l
Phos [8]: 4.9 mg/dL
RBC [8]: 9.02e+06 µL⁻¹
Total Bili [8]: 0.3 mg/dL
Total Prot [8]: 7.2 g/dL
WBC [8]: 3600 µL⁻¹
Platlet Count (sheep Petunia #439, 15 mg/day, Day 15, platelet clumps observed): 606• ×10^3/μl
ALT [9]: 0 U/L
AST [9]: 97 U/L
Albumin [9]: 3.6 g/dL
Alk Phos [9]: 49 U/L
BUN [9]: 17 mg/dL
CPK [9]: 91 U/L
Cholesterol [9]: 65 mg/dL
Creatinine [9]: 1.2 mg/dL
Differential Count: Atyp lym [9]: 1%
Differential Count: Bands [9]: 0%
Differential Count: Eosin [9]: 7%
Differential Count: Lymph [9]: 47%
Differential Count: Mono [9]: 4%
Differential Count: Seg [9]: 41%
Gamma GT [9]: 77 U/L
Glucose [9]: 68 mg/dL
Hct [9]: 36.0%
Hgb [9]: 11.8 g/dL
K+ [9]: 5.2 mEq/l
MCH [9]: 11.2 pg
MCHC [9]: 32.7 G/dl
MCV [9]: 34.1 fL
Na+ [9]: 146 mEq/l
Phos [9]: 6.2 mg/dL
Platlet Count [9]: 356000 µL⁻¹
RBC [9]: 1.05e+07 µL⁻¹
Total Bili [9]: 0.1 mg/dL
Total Prot [9]: 6.3 g/dL
WBC [9]: 2300 µL⁻¹
Differential Count: Atyp lym [10]: 0%
Differential Count: Bands [10]: 0%
Differential Count: Eosin [10]: 2%
Differential Count: Lymph [10]: 48%
Differential Count: Mono [10]: 2%
Differential Count: Seg [10]: 48%
Hct [10]: 40.7%
Hgb [10]: 13.5 g/dL
MCH [10]: 12.4 pg
MCHC [10]: 33.2 g/dL
MCV [10]: 37.2 fL
Platlet Count [10]: 215000 µL⁻¹
RBC [10]: 1.09e+07 µL⁻¹
WBC [10]: 3530 µL⁻¹
ALT [11]: 3 U/L
AST [11]: 67 U/L
Albumin [11]: 3.5 g/dL
Alk Phos [11]: 37 U/L
BUN [11]: 10 mg/dL
CPK [11]: 73 U/L
Cholesterol [11]: 71 mg/dL
Creatinine [11]: 1.3 mg/dL
Differential Count: Atyp lym [11]: 0%
Differential Count: Bands [11]: 0%
Differential Count: Eosin [11]: 1%
Differential Count: Lymph [11]: 41%
Differential Count: Mono [11]: 5%
Differential Count: Seg [11]: 53%
Gamma GT [11]: 46 U/L
Glucose [11]: 72 mg/dL
Hct [11]: 40.4%
Hgb [11]: 13.4 g/dL
K+ [11]: 4.6 mEq/l
MCH [11]: 12.3 pg
MCHC [11]: 33.1 g/dL
MCV [11]: 37.1 fL
Na+ [11]: 153 mEq/l
Phos [11]: 7.5 mg/dL
Platlet Count [11]: 319000 µL⁻¹
RBC [11]: 1.09e+07 µL⁻¹
Total Bili [11]: 0 mg/dL
Total Prot [11]: 6.8 g/dL
WBC [11]: 3470 µL⁻¹
ALT [12]: 8 U/L
AST [12]: 69 U/L
Albumin [12]: 3.9 g/dL
Alk Phos [12]: 33 U/L
BUN [12]: 14 mg/dL
CPK [12]: 94 U/L
Cholesterol [12]: 3.5 mg/dL
Creatinine [12]: 1.2 mg/dL
Differential Count: Atyp lym [12]: 0%
Differential Count: Bands [12]: 0%
Differential Count: Eosin [12]: 1%
Differential Count: Lymph [12]: 33%
Differential Count: Mono [12]: 5%
Differential Count: Seg [12]: 61%
Gamma GT [12]: 74 U/L
Glucose [12]: 89 mg/dL
Hct [12]: 31.4%
Hgb [12]: 10.2 g/dL
K+ [12]: 4.2 mEq/l
MCH [12]: 12.3 pg
MCHC [12]: 32.3 g/dL
MCV [12]: 38.2 fL
Na+ [12]: 150 mEq/l
Phos [12]: 48 mg/dL
Platlet Count [12]: 173000 µL⁻¹
RBC [12]: 8.23e+06 µL⁻¹
Total Bili [12]: 0.2 mg/dL
Total Prot [12]: 7.4 g/dL
WBC [12]: 3170 µL⁻¹
ALT [13]: 13 U/L
AST [13]: 59 U/L
Albumin [13]: 3.5 g/dL
Alk Phos [13]: 55 U/L
BUN [13]: 17 mg/dL
CPK [13]: 93 U/L
Cholesterol [13]: 62 mg/dL
Creatinine [13]: 1.3 mg/dL
Differential Count: Atyp lym [13]: 1%
Differential Count: Bands [13]: 0%
Differential Count: Eosin [13]: 5%
Differential Count: Lymph [13]: 40%
Differential Count: Mono [13]: 5%
Differential Count: Seg [13]: 49%
Gamma GT [13]: 42 U/L
Glucose [13]: 61 mg/dL
Hct [13]: 39.2%
Hgb [13]: 12.2 g/dL
K+ [13]: 4.8 mEq/l
MCH [13]: 12.0 pg
MCHC [13]: 31.8 g/dL
MCV [13]: 37.6 fL
Na+ [13]: 147 mEq/l
Phos [13]: 5.9 mg/dL
Platlet Count [13]: 214000 µL⁻¹
RBC [13]: 1.04e+07 µL⁻¹
Total Bili [13]: 0.1 mg/dL
Total Prot [13]: 6.4 g/dL
WBC [13]: 3590 µL⁻¹
